Data reported in patent US20090247520A1, “INHIBITORS OF ANTIGEN RECEPTOR-INDUCED NF-kappa B ACTIVATION” (The Burnham Institute for Medical Research, priority 2008, published 2009).
Entries after “also recorded” stand apart in the source; their conditions may differ.

Columns and labels:
[1] = system: NOD1 (NLRC1) induced NF-κB-luciferase reporter gene activity; assay: NF-κB reporter in HEK293-NF-κB-luc cells over-expressing NOD1; assay type: cell-based; settings: CID-2858522 4 μM, IKK inhibitor 10 μM
Procedure: (§1) FIGS. 3 (A-F) HEK293-NF-κB-luc cells were pretreated with CID-2858522 (4 μM), IKK inhibitor, BMS-335541 (10 μM), or PKC inhibitor, Bisindolylmaleimide I (1 μM) for 2 hrs and then transfected with plasmids encoding CD4/TLR4 (A), CD40 (B), NOD1 (C), NOD2 (D), cIAP2-MALT1 (E), or XIAP and TAB (F), or pcDNA as control (compounds were not removed). After 48 hrs, luciferase activity was measured expressing data as fold increase relative to unstimulated cells (mean±SD; n=3). (G-H) HEK293-NF-κB-luc cells were pretreated with CID-2858522 (4 μM), or IKK inhibitor, BMS-335541 (10 μM) for 2 hrs and then cultured with 2 μM doxorubicin (G) or 16 μM retinoic acid (H). After 48 hrs, luciferase activity was measured as above.
(§2) Counter Screening and Secondary Assays. To counter-screen for inhibitors of the TNF pathway, HEK293-NFκB-Luc cells were seeded at 10^5 cells per well in 90 μL medium in white 96-well plates (Greiner Bio-One) and cultured overnight, before adding compounds (5 μL in medium) to cells. […] Luciferase activity was measured using Britelite kit (Perkin Elmer). […] Cells were cultured in medium containing CID-2858522 or other compounds and luciferase activity was measured 48 h later. […] Reactions were then initiated by addition of 50 μL 160 nM ATP (Sigma) in PBS and luciferase activity was measured 2 h later using a luminometer (LJL Biosystems, Sunnyvale, Calif.).

[2] = system: CD4-TLR4 induced NF-κB reporter gene activity; assay: NF-κB reporter in HEK293-NF-κB-luc cells transfected with CD4-TLR4; assay type: cell-based; settings: CID-2858522 4 μM, IKK inhibitor 10 μM, PKC inhibitor 1 μM
Procedure: as §1, §2

[3] = system: retinoic acid-induced NF-κB activity; assay: NF-κB reporter in HEK293-NF-κB-luc cells treated with all-trans-retinoic acid; assay type: cell-based; settings: 16 μM retinoic acid; CID-2858522 4 μM, IKK inhibitor 10 μM
Procedure: as §1, §2

[4] = molecular target: T1, PKC-beta (Homo sapiens, UniProt P05771); assay: In vitro kinase assay PKC-beta (HTScan kit); assay type: biochemical; settings: CID-2858522 up to 8 μM; STS 0.5 μM; PKC inhibitor 1 μM
T1 construct: purchased Cell Signaling, Danvers, Mass
T1 sequence (P05771 whole entry): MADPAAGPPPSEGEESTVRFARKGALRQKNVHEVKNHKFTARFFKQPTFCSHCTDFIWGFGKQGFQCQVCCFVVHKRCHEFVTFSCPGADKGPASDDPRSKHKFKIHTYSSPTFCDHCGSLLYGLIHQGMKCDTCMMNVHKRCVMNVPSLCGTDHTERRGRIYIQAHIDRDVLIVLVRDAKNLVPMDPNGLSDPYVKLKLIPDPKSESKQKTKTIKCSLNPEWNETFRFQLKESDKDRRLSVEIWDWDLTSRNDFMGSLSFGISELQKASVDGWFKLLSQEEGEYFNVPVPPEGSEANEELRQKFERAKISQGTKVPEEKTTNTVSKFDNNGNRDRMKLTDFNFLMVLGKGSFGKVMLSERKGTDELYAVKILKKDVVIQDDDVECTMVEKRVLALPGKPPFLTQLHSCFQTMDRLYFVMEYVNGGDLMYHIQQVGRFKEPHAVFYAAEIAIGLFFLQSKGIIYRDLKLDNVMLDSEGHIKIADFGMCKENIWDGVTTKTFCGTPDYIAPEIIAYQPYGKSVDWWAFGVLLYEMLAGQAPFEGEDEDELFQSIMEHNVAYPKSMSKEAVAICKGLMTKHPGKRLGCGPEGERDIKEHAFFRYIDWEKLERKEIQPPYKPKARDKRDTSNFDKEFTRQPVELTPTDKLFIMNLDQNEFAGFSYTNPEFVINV
Procedure: (§3) CID-2858522 (8 μM) were tested in in vitro IKK beta (A), PKC beta […] or PKC theta (C) kinase assays using kits. STS (0.5 μM), IKK inhibitor (10 μM) and PKC inhibitor (1 μM) were used as positive controls.
(§4) In Vitro Kinase Assays. PKC-beta, PKC-theta and IKK-beta in vitro kinase assays were performed using the HTScan Kinase Assay Kit (Cell Signaling, Danvers, Mass.) according to manufacturer's protocols. A panel of >300 kinases was screened by Ambit, Inc.

[5] = molecular target: T2, PKC-theta (Homo sapiens, UniProt Q04759); assay: In vitro kinase assay PKC-theta (HTScan kit); assay type: biochemical; settings: CID-2858522 up to 8 μM; STS 0.5 μM; PKC inhibitor 1 μM
T2 construct: purchased Cell Signaling, Danvers, Mass
T2 sequence (Q04759 whole entry): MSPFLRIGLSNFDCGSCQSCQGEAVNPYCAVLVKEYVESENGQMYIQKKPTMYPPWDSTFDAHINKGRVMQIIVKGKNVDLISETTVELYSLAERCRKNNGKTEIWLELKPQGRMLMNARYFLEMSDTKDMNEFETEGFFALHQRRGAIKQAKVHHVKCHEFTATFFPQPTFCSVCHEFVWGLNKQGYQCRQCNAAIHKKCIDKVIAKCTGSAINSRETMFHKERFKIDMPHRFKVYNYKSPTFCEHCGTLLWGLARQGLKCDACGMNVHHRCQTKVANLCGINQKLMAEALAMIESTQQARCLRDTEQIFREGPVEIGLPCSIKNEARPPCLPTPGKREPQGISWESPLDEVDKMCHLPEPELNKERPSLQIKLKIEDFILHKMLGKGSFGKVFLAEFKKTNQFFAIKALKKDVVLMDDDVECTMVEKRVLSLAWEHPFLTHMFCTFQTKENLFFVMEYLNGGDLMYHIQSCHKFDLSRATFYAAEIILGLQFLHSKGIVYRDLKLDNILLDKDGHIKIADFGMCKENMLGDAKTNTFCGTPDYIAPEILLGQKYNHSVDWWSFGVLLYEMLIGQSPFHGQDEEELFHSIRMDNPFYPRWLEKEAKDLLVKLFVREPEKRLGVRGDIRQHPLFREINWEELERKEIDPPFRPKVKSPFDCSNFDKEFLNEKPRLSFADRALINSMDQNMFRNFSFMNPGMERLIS
Procedure: as §3, §4

[6] = system: c-FLIP processing; assay: PMA/Ionomycin-induced c-FLIP processing in HEK293 cells (immunoblot); assay type: cell-based; settings: CID-2858522 4 μM, PKC inhibitor 1 μM
Procedure: FIG. 7. CID-285852 inhibits IKKβ phosphorylation induced by PKC activators. (A) HEK293 cells were cultured in 0.5% FBS medium for 24 h and then treated with CID-2858522 (4 μM) or PKC inhibitor, Bisindolylmaleimide I (1 μM) for 2 hrs followed by PMA/Ionomycin (10 ng/mL; 5 ng/mL) for 2 h. Cell lysates were subjected to immunoprecipitation using anti-CARMA1 antibody and analyzed by immunoblotting with anti-phospho-CARMA1 antibody or anti-CARMA1 antibody. (B-E) HEK293 cells were transfected with plasmids encoding myc-CARMA1 in combination with plasmids encoding various other proteins including Caspase-8 (cys287ala) (B), HA-IKK-γ (C), HA-TAK1 (D), and TRAF6 (E). […] Cell lysates were immunoprecipated using anti-myc antibody and analyzed by immunoblotting using anti-Caspase8 (B), anti-HA (C,D), or anti-TRAF6 (E) antibodies. […] Cell lysates were normalized for protein content and analyzed by immunoblotting using anti-FLIP and anti-alpha-tubulin antibodies. […] Cell lysates were immunoprecipitated using anti-IKK-β and analyzed by immunoblotting using anti-phospho-IKK-β antibody or anti-IKK-β antibody (as loading control). […]
Caspase-8 plays an essential role in antigen receptor-mediated NF-κB activation. […] We then assessed the effects of CID-2858522 on PMA-induced proteolytic processing of c-FLIP, a Caspase-8-mediated event recently shown to be required for antigen receptor mediated NF-κB activation.

SMILES: Cc1ccc2nc(NCCN)c3ncc(C)n3c2c1 [BMS-345541, reference compound]
- inhibition of NOD1-induced NF-κB reporter [1]: inhibited
- suppression of TLR4 (CD4-TLR4) induced NF-κB reporter [2]: suppressed
- suppression of retinoic acid-induced NF-κB activity [3]: significantly suppressed

SMILES: CN(C)CCCn1cc(C2=C(c3c[nH]c4ccccc34)C(=O)NC2=O)c2ccccc21 [Bisindolylmaleimide I, reference compound]
- inhibition of PKC-beta kinase activity [4]: potent inhibition
- inhibition of PKC-theta kinase activity [5]: potent inhibition
- inhibition of c-FLIP processing [6]: completely inhibited

SMILES: Cc1cc2nc(NCCCO)n(CC(=O)c3cc(C(C)(C)C)c(O)c(C(C)(C)C)c3)c2cc1C [Compound 1, 2-(2-(3-Hydroxypropylamino)-5,6-dimethyl-1H-benzo[d]imidazol-1-yl)-1-(3,5-di-tert-butyl-4-hydroxyphenyl)ethanone]
- inhibition of PKC-beta kinase activity [4]: failed to suppress
- inhibition of NOD1-induced NF-κB reporter [1]: did not inhibit; also recorded: not by CID-2858522
- inhibition of PKC-theta kinase activity [5]: failed to suppress
- suppression of TLR4 (CD4-TLR4) induced NF-κB reporter [2]: did not inhibit; also recorded: not by CID-2858522
- inhibition of c-FLIP processing [6]: not affected
- suppression of retinoic acid-induced NF-κB activity [3]: did not inhibit
